The record followed here is ChEMBL document CHEMBL3734709, “Design, synthesis and evaluation of diarylpiperazine derivatives as potent anti-tubercular agents” (Eur J Med Chem, 2015).

Series [1] can be described thus: Cytotoxicity against african green monkey Vero cells after 72 hrs by MTT assay. The class given is cell-based. The settings on record: chlorocebus sabaeus. For orientation: Tetrazolium dyes change colour on reduction, which living cells bring about.
For series [2], the system named is Mycobacterium tuberculosis. The experiment in a line: Antitubercular activity against Mycobacterium tuberculosis H37Rv measured on day 4 by microplate Alamar blue assay. The class given is functional. The settings on record: 96 h. Background: Resazurin is reduced to fluorescent resorufin, in cell work by metabolically active cells.
The nature of series [3]: Selectivity index, ratio of CC50 for african green monkey Vero cells to MIC for Mycobacterium tuberculosis H37Rv. The class given is toxicity, cell-based. The note with it: read-out: Selectivity Index.

Structures are written as SMILES. In brackets after ≈: the same amount, converted by molar mass.

As a reminder, the CC50 is the concentration that lowers cell viability or growth by half. What is called MIC90 is the lowest concentration that inhibits either 90% of growth or 90% of the strains tested, depending on the study. The compound `Cn1c2ccccc2c2cc(C(=O)N3CCN(c4ccccc4)CC3)nc(-c3ccccc3)c21` gave a CC50 at 72 h in series [1] of more than 50 µg/mL. Also, in series [2], the MIC90 was 27.4 µM (≈ 12.2 µg/mL). Besides, the selectivity ratio in series [3] is more than 4.1.

As to `Cc1ccc(N2CCN(C(=O)c3cc4c5ccccc5n(C)c4c(-c4ccccc4)n3)CC2)cc1`, the CC50 at 72 h in series [1] was more than 50 µg/mL. Moreover, the MIC90 in series [2] amounted to 9.3 µM (≈ 4.28 µg/mL). Also, in series [3], the selectivity ratio was more than 11.6.

In series [1], `Cc1ccccc1N1CCN(C(=O)c2cc3c4ccccc4n(C)c3c(-c3ccccc3)n2)CC1` registered a cytotoxic concentration (CC50) at 72 h of more than 50 µg/mL. In series [2], the MIC90 came to 5.2 µM (≈ 2.4 µg/mL). Moreover, the selectivity ratio in series [3] is more than 20.8.

With `COc1ccc(N2CCN(C(=O)c3cc4c5ccccc5n(C)c4c(-c4ccccc4)n3)CC2)cc1`, the half-maximal cytotoxic concentration (CC50) at 72 h in series [1] was more than 50 µg/mL. The compound further showed an MIC90 in series [2] of 10.1 µM (≈ 4.81 µg/mL). The selectivity ratio in series [3] is more than 8.6.

As to `COc1ccccc1N1CCN(C(=O)c2cc3c4ccccc4n(C)c3c(-c3ccccc3)n2)CC1`, in series [1], the CC50 at 72 h is more than 50 µg/mL. In series [2], the MIC90 stood at 3.5 µM (≈ 1.67 µg/mL). In addition, the selectivity ratio in series [3] was more than 25.

Consider `Cn1c2ccccc2c2cc(C(=O)N3CCN(c4ccc(Cl)cc4)CC3)nc(-c3ccccc3)c21`, for which the CC50 at 72 h in series [1] was more than 50 µg/mL. For the same compound, the MIC90 in series [2] worked out at 83.3 µM (≈ 40.1 µg/mL). Moreover, in series [3], the selectivity ratio was more than 1.3.

With `Cn1c2ccccc2c2cc(C(=O)N3CCN(c4cccc(Cl)c4)CC3)nc(-c3ccccc3)c21`, the half-maximal cytotoxic concentration (CC50) at 72 h in series [1] was more than 50 µg/mL. Moreover, in series [2], the MIC90 is 79.6 µM (≈ 38.3 µg/mL). For the same compound, in series [3], the selectivity ratio was more than 1.3.

The compound `Cn1c2ccccc2c2cc(C(=O)N3CCN(c4ccccc4Cl)CC3)nc(-c3ccccc3)c21` yielded a cytotoxic concentration (CC50) at 72 h in series [1] of more than 50 µg/mL. Besides, in series [2], the MIC90 came out at 5 µM (≈ 2.4 µg/mL). Besides, in series [3], the selectivity ratio is more than 20.8.

`Cn1c2ccccc2c2cc(C(=O)N3CCN(c4ccc(F)cc4)CC3)nc(-c3ccccc3)c21` came in with a CC50 at 72 h in series [1] of more than 50 µg/mL. Besides, the MIC90 in series [2] stood at 5.6 µM (≈ 2.6 µg/mL). In addition, in series [3], the selectivity ratio is more than 19.2.

In turn, `Cn1c2ccccc2c2cc(C(=O)N3CCN(c4ccccc4F)CC3)nc(-c3ccccc3)c21` came in with a CC50 at 72 h in series [1] of more than 50 µg/mL. The MIC90 in series [2] is 5.8 µM (≈ 2.69 µg/mL). Moreover, in series [3], the selectivity ratio was more than 18.5.

For the compound `Cn1c2ccccc2c2cc(C(=O)N3CCN(c4cccc(Cl)c4Cl)CC3)nc(-c3ccccc3)c21`, the half-maximal cytotoxic concentration (CC50) at 72 h in series [1] is more than 50 µg/mL. In addition, the MIC90 in series [2] was found to be 2.9 µM (≈ 1.49 µg/mL). Further, the selectivity ratio in series [3] is more than 33.3.

`Cn1c2ccccc2c2cc(C(=O)N3CCN(Cc4ccccc4)CC3)nc(-c3ccccc3)c21` displayed a CC50 at 72 h in series [1] of more than 50 µg/mL. Besides, in series [2], the MIC90 worked out at 8.9 µM (≈ 4.1 µg/mL). Besides, in series [3], the selectivity ratio is more than 12.2.

The compound `Cn1c2ccccc2c2cc(C(=O)N3CCN(c4ccncc4)CC3)nc(-c3ccccc3)c21` had a CC50 at 72 h in series [1] of 18 µg/mL (≈ 40.2 µM). For the same compound, the MIC90 in series [2] stood at 9.8 µM (≈ 4.39 µg/mL). Also, the selectivity ratio in series [3] stood at 4.5.

`Cn1c2ccccc2c2cc(C(=O)N3CCN(c4ccccn4)CC3)nc(-c3ccccc3)c21`: in series [1], the CC50 at 72 h was more than 50 µg/mL. Further, in series [2], the MIC90 amounted to 9.8 µM (≈ 4.39 µg/mL). Moreover, the selectivity ratio in series [3] is more than 11.4.

`CO[C@H]1/C=C/O[C@@]2(C)Oc3c(C)c(O)c4c(O)c(c(/C=N/N5CCN(C)CC5)c(O)c4c3C2=O)NC(=O)/C(C)=C\C=C\[C@H](C)[C@H](O)[C@@H](C)[C@@H](O)[C@@H](C)[C@H](OC(C)=O)[C@@H]1C` [RIFAMPIN] displayed a half-maximal cytotoxic concentration (CC50) at 72 h in series [1] of more than 150 µg/mL. The same compound came in with an MIC90 in series [2] of 0.13 µM (≈ 0.107 µg/mL). For the same compound, the selectivity ratio in series [3] was more than 1360.
